The record followed here is patent US8877161B2 (priority 2011, dated 2014).

SMILES strings stand for the structures. Like-named read-outs stand apart in the source and are kept apart here. Where a SMILES comes first, the peptide text is derived from it.

Holding throughout (format): binding
One test deals with AbGD1a (GD1a/AbGD1a). Particulars: peptide at its IC50 AbGM1-1; lot # 109H.
Test [1] concerns rabbit anti-GM1 antibodies (AbGM1). Particulars: for IC50: AbGM1-1 lot # 431A.
For the next test, the system named is AbGM4 (GM4/AbGM4). Particulars: peptide at its IC50 AbGM1-1; lot # GMR6.
The target in test [2] is cholera toxin B subunit (CTB); ligand Lipid AP (Vibrio cholerae serotype O1, UniProt P01556).
A further test relates to AbF-GM1 (F-GM1/AbF-GM1). Particulars: peptide at its IC50 AbGM1-1; lot # G351.
Test [3] has as its target cholera toxin B subunit (CTB); ligand fucosyl-GM1 (F-GM1) (Vibrio cholerae serotype O1, UniProt P01556).
Another test concerns AbSGPG (SGPG/AbSGPG). Particulars: peptide at its IC50 AbGM1-1; lot # D710-5.
The target of test [4] is cholera toxin B subunit (CTB); ligand GM1 (Vibrio cholerae serotype O1, UniProt P01556).
In another test the test system is AbGD3 (GD3/AbGD3). The settings on record: peptide at its IC50 AbGM1-1; lot # R24.
In the next test the test system is AbGD1b (GD1b/AbGD1b). The settings on record: peptide at its IC50 AbGM1-1; lot # D710-6.
For test [5], the target named is cholera toxin B subunit (CTB); ligand GD1b (Vibrio cholerae serotype O1, UniProt P01556).
In test [6] the target is cholera toxin B subunit (CTB); ligand LOSGM1 (Vibrio cholerae serotype O1, UniProt P01556).
Another test has as its system AbGM2 (GM2/AbGM2). The settings on record: peptide at its IC50 AbGM1-1; lot # D710-2.

cholera toxin B subunit (CTB); ligand GM1, sequence (P01556 22-124 limits assumed): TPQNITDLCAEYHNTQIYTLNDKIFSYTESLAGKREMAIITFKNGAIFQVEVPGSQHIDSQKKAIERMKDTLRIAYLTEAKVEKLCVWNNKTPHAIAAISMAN
cholera toxin B subunit (CTB); ligand LOSGM1, sequence (P01556 22-124 limits assumed): as above
cholera toxin B subunit (CTB); ligand fucosyl-GM1 (F-GM1), sequence (P01556 22-124 limits assumed): as above
cholera toxin B subunit (CTB); ligand GD1b, sequence (P01556 22-124 limits assumed): as above
cholera toxin B subunit (CTB); ligand Lipid AP, sequence (P01556 22-124 limits assumed): as above

Consider `CC(C)C[C@H](NC(=O)[C@H](CCCCN)NC(=O)[C@@H](NC(=O)[C@H](Cc1ccccc1)NC(=O)[C@H](Cc1c[nH]c2ccccc12)NC(=O)[C@H](C)NC(=O)[C@@H]1CCCN1C(=O)[C@@H](N)Cc1ccccc1)[C@@H](C)O)C(=O)N[C@@H](Cc1ccc(O)cc1)C(=O)N1CCC[C@H]1C(=O)N[C@@H](CCCNC(=N)N)C(=O)N[C@H](C(=O)O)[C@@H](C)O` [PGM1-4, FPAWFTKLYPRT] (H-FPAWFTKLYPRT-OH), for which the “Inhibition percent at IC50AbGM1-1: GD1a/AbGD1a” value with AbGD1a (GD1a/AbGD1a) is reported as 0%. Also, in test [1] (Table 4, dilution 1:500), 175 nM corresponded to half-maximal inhibition (IC50). The compound also had an IC50 in test [1] (Table 5) of 175 nM. The “Inhibition percent at IC50AbGM1-1: GM1/AbGM1-1” value in test [1] (Table 5, peptide at its IC50 AbGM1-1, lot # 431A) is given as 50%. Further, the “Inhibition percent at IC50 AbGM1-1: AbGM1-3” value in test [1] (peptide at its IC50 AbGM1-1, antibody lot # 101J, dilution 1:500) came out at 12.6%. The “Inhibition percent at IC50 AbGM1-1: AbeGM1-4” value in [1] (peptide at its IC50 AbGM1-1, antibody lot # 104H, dilution 1:500) is 33.9%. Further, the “Inhibition percent at IC50 AbGM1-1: AbGM1-5” value in test [1] (peptide at its IC50 AbGM1-1, antibody lot # 105T, dilution 1:500) was determined as 0%. The “Inhibition percent at IC50 AbGM1-1: AbGM1-1” value in test [1] (peptide at its IC50 AbGM1-1, antibody lot # 431A, dilution 1:500, means of 4 values) is on record as 50%. For the same compound, in test [1] (peptide at its IC50 AbGM1-1, antibody lot # 431B, dilution 1:500), the “Inhibition percent at IC50 AbGM1-1: AbGM1-2” value worked out at 70.1%. Moreover, in the test on AbGM4 (GM4/AbGM4), the “Inhibition percent at IC50AbGM1-1: GM4/AbGM4” value was found to be 0%. In test [2], the “Inhibition percent at IC50 GM1: Lipid AP” value came out at 0%. Moreover, the “Inhibition percent at IC50AbGM1-1: F-GM1/AbF-GM1” value in the test with AbF-GM1 (F-GM1/AbF-GM1) is on record as 25.7%. Besides, in test [3], the “Inhibition percent at IC50 GM1: F-GM1” value is 62.1%. Also, in the test with AbSGPG (SGPG/AbSGPG), the “Inhibition percent at IC50AbGM1-1: SGPG/AbSGPG” value was 0%. Also, in [4], the “IC50 GM1” value amounted to 77.4 nM and the “Inhibition percent at IC50 GM1: GM1” value came out at 50%. For the same compound, in the test with AbGD3 (GD3/AbGD3), the “Inhibition percent at IC50AbGM1-1: GD3/AbGD3” value turned out to be 0%. Also, the “Inhibition percent at IC50AbGM1-1: GD1b/AbGD1b” value in the test on AbGD1b (GD1b/AbGD1b) amounted to 12.1%. In addition, the “Inhibition percent at IC50 GM1: GD1b” value in test [5] came to 18.9%. Moreover, the “Inhibition percent at IC50 GM1: LOSGM1” value in test [6] amounted to 51.1%. Moreover, in the test on AbGM2 (GM2/AbGM2), the “Inhibition percent at IC50AbGM1-1: GM2/AbGM2” value came to 0%.

The term IC50 denotes the concentration that gives 50% inhibition. A higher IC50 goes with lower potency.
